ChEMBL document CHEMBL3390836, “Mannich- and LedererManasse-based analogues of the natural product S-(+)-curcuphenol as cancer proliferation and migration inhibitors” (Medchemcomm, 2012)
pIC50: −log10 of the molar value.

How the values were obtained:
T47D = assay: Cytotoxicity against human T47D cells assessed as cell growth at 10 uM after 48 hrs by SRB assay relative to control; format: functional; conditions: read-out: Activity
MDA-MB-231 [1] = assay: Cytotoxicity against human MDA-MB-231 cells assessed as cell growth at 10 uM after 48 hrs by SRB assay relative to control; format: functional; conditions: MDA-MB-231, 48 h, read-out: Activity
[2] = Cytotoxicity against human PC3 cells assessed as cell growth at 10 uM after 48 hrs by SRB assay relative to control; format: functional; conditions: PC-3, 48 h, read-out: Activity
MCF7 = assay: Cytotoxicity against human MCF7 cells assessed as cell growth at 10 uM after 48 hrs by SRB assay relative to control; format: functional; conditions: MCF7, 48 h, read-out: Activity
TK-10 = assay: Cytotoxicity against human TK10 cells assessed as cell growth at 10 uM after 48 hrs by SRB assay relative to control; format: functional; conditions: TK-10, 48 h, read-out: Activity
SN12C = assay: Cytotoxicity against human SN12C cells assessed as cell growth at 10 uM after 48 hrs by SRB assay relative to control; format: functional; conditions: read-out: Activity
ACHN = assay: Cytotoxicity against human ACHN cells assessed as cell growth at 10 uM after 48 hrs by SRB assay relative to control; format: functional; conditions: read-out: Activity
786-0 = assay: Cytotoxicity against human 786-0 cells assessed as cell growth at 10 uM after 48 hrs by SRB assay relative to control; format: functional; conditions: 786-0, 48 h, read-out: Activity
MDA-MB-231 [3] = assay: Cytotoxicity against human MDA-MB-231 cells assessed as growth inhibition after 24 hrs by MTT assay; format: cell-based; conditions: MDA-MB-231, 24 h
[4] = Cytotoxicity against human OVCAR3 cells assessed as cell growth at 10 uM after 48 hrs by SRB assay relative to control; format: functional; conditions: OVCAR-3, 48 h, read-out: Activity
IGROV-1 = assay: Cytotoxicity against human IGROV1 cells assessed as cell growth at 10 uM after 48 hrs by SRB assay relative to control; format: functional; conditions: IGROV-1, 48 h, read-out: Activity
[5] = Cytotoxicity against human UACC62 cells assessed as cell growth at 10 uM after 48 hrs by SRB assay relative to control; format: functional; conditions: UACC-62, 48 h, read-out: Activity
[6] = Cytotoxicity against human UACC257 cells assessed as cell growth at 10 uM after 48 hrs by SRB assay relative to control; format: functional; conditions: UACC-257, 48 h, read-out: Activity
SK-MEL-28 = assay: Cytotoxicity against human SK-MEL-28 cells assessed as cell growth at 10 uM after 48 hrs by SRB assay relative to control; format: functional; conditions: SK-MEL-28, 48 h, read-out: Activity
MDA-MB-435 = assay: Cytotoxicity against human MDA-MB-435 cells assessed as cell growth at 10 uM after 48 hrs by SRB assay relative to control; format: functional; conditions: MDA-MB-435, 48 h, read-out: Activity
M14 = assay: Cytotoxicity against human M14 cells assessed as cell growth at 10 uM after 48 hrs by SRB assay relative to control; format: functional; conditions: M14, 48 h, read-out: Activity
LOX IMVI = assay: Cytotoxicity against human LOXIMVI cells assessed as cell growth at 10 uM after 48 hrs by SRB assay relative to control; format: functional; conditions: read-out: Activity
SNB-75 = assay: Cytotoxicity against human SNB75 cells assessed as cell growth at 10 uM after 48 hrs by SRB assay relative to control; format: functional; conditions: SNB-75, 48 h, read-out: Activity
SF-539 = assay: Cytotoxicity against human SF539 cells assessed as cell growth at 10 uM after 48 hrs by SRB assay relative to control; format: functional; conditions: SF-539, 48 h, read-out: Activity
SNB-19 = assay: Cytotoxicity against human SNB19 cells assessed as cell growth at 10 uM after 48 hrs by SRB assay relative to control; format: functional; conditions: SNB-19, 48 h, read-out: Activity
SF-295 = assay: Cytotoxicity against human SF295 cells assessed as cell growth at 10 uM after 48 hrs by SRB assay relative to control; format: functional; conditions: SF-295, 48 h, read-out: Activity
KM12 = assay: Cytotoxicity against human KM12 cells assessed as cell growth at 10 uM after 48 hrs by SRB assay relative to control; format: functional; conditions: KM12, 48 h, read-out: Activity
HT-29 = assay: Cytotoxicity against human HT-29 cells assessed as cell growth at 10 uM after 48 hrs by SRB assay relative to control; format: functional; conditions: HT-29, 48 h, read-out: Activity
[7] = Cytotoxicity against human HCT15 cells assessed as cell growth at 10 uM after 48 hrs by SRB assay relative to control; format: functional; conditions: HCT-15, 48 h, read-out: Activity
HCC 2998 = assay: Cytotoxicity against human HCC2998 cells assessed as cell growth at 10 uM after 48 hrs by SRB assay relative to control; format: functional; conditions: HCC 2998, 48 h, read-out: Activity
[8] = Cytotoxicity against human HCT116 cells assessed as cell growth at 10 uM after 48 hrs by SRB assay relative to control; format: functional; conditions: HCT-116, 48 h, read-out: Activity
NCI-H322M = assay: Cytotoxicity against human NCI-H322M cells assessed as cell growth at 10 uM after 48 hrs by SRB assay relative to control; format: functional; conditions: read-out: Activity
NCI-H460 = assay: Cytotoxicity against human NCI-H460 cells assessed as cell growth at 10 uM after 48 hrs by SRB assay relative to control; format: functional; conditions: NCI-H460, 48 h, read-out: Activity
NCI-H23 = assay: Cytotoxicity against human NCI-H23 cells assessed as cell growth at 10 uM after 48 hrs by SRB assay relative to control; format: functional; conditions: NCI-H23, 48 h, read-out: Activity
HOP-62 = assay: Cytotoxicity against human HOP62 cells assessed as cell growth at 10 uM after 48 hrs by SRB assay relative to control; format: functional; conditions: HOP-62, 48 h, read-out: Activity
A549 = assay: Cytotoxicity against human A549 cells assessed as cell growth at 10 uM after 48 hrs by SRB assay relative to control; format: functional; conditions: A549, 48 h, read-out: Activity
[9] = Cytotoxicity against human EKVX cells assessed as cell growth at 10 uM after 48 hrs by SRB assay relative to control; format: functional; conditions: read-out: Activity
RPMI-8226 = assay: Cytotoxicity against human RPMI8226 cells assessed as cell growth at 10 uM after 48 hrs by SRB assay relative to control; format: functional; conditions: RPMI-8226, 48 h, read-out: Activity
K562 = assay: Cytotoxicity against human K562 cells assessed as cell growth at 10 uM after 48 hrs by SRB assay relative to control; format: functional; conditions: K562, 48 h, read-out: Activity
CCRF-CEM = assay: Cytotoxicity against human CCRF-CEM cells assessed as cell growth at 10 uM after 48 hrs by SRB assay relative to control; format: functional; conditions: read-out: Activity
MDA-MB-231 [10] = assay: Antimigratory activity against human MDA-MB-231 cells after 24 hrs by wound-healing assay; format: functional, cell-based; conditions: MDA-MB-231, 24 h

Structure (SMILES)	growth at 10 µM (T47D)	growth at 10 µM (MDA-MB-231 [1])	growth at 10 µM [2]	growth at 10 µM (MCF7)	growth at 10 µM (TK-10)	growth at 10 µM (SN12C)	growth at 10 µM (ACHN)	growth at 10 µM (786-0)	pIC50 (MDA-MB-231 [3])	growth at 10 µM [4]	growth at 10 µM (IGROV-1)	growth at 10 µM [5]	growth at 10 µM [6]	growth at 10 µM (SK-MEL-28)	growth at 10 µM (MDA-MB-435)	growth at 10 µM (M14)	growth at 10 µM (LOX IMVI)	growth at 10 µM (SNB-75)	growth at 10 µM (SF-539)	growth at 10 µM (SNB-19)	further results
CC(C)=CCC[C@H](C)c1ccc(C)cc1O	111%	97.1%	80%	97.8%	110%	105%	109%	79.9%	< 4.70	96.3%	97.8%	100%	107%	119%	100%	106%	107%	94.3%	103%	98.5%	growth at 10 µM (SF-295): 107%; growth at 10 µM (KM12): 93.8%; growth at 10 µM (HT-29): 103%; growth at 10 µM [7]: 109%; growth at 10 µM (HCC 2998): 99.5%; growth at 10 µM [8]: 97.3%; growth at 10 µM (NCI-H322M): 113%; growth at 10 µM (NCI-H460): 107%; growth at 10 µM (NCI-H23): 94.9%; growth at 10 µM (HOP-62): 102%; growth at 10 µM (A549): 92.6%; growth at 10 µM [9]: 110%; growth at 10 µM (RPMI-8226): 99.9%; growth at 10 µM (K562): 93%; growth at 10 µM (CCRF-CEM): 105%; pIC50 (MDA-MB-231 [10]): 4.43
COc1ccc(CCNCc2c(C)ccc([C@@H](C)CCC=C(C)C)c2O)cc1OC	69.8%	87.7%	71%	85.1%	90.1%	87.1%	87.1%	80.4%	< 4.70	90.1%	68.8%	84.9%	78.7%	104%	97.8%	91%	73.7%	66.1%	88.9%	90.8%	growth at 10 µM (SF-295): 87.9%; growth at 10 µM (KM12): 89.9%; growth at 10 µM (HT-29): 48.9%; growth at 10 µM [7]: 92.2%; growth at 10 µM (HCC 2998): 15.7%; growth at 10 µM [8]: 58%; growth at 10 µM (NCI-H322M): 99%; growth at 10 µM (NCI-H460): 83.1%; growth at 10 µM (NCI-H23): 74%; growth at 10 µM (HOP-62): 89%; growth at 10 µM (A549): 85.8%; growth at 10 µM [9]: 82.3%; growth at 10 µM (RPMI-8226): 55.8%; growth at 10 µM (K562): 44.5%; growth at 10 µM (CCRF-CEM): 80.1%; pIC50 (MDA-MB-231 [10]): < 4.70
CC(C)=CCC[C@H](C)c1ccc(C)c2c1OCN(CC1CCNCC1)C2	-94.4%	64%	59.4%	36%	75%	47%	64%	-60.1%	< 4.70	77.2%	78.7%	63.5%	24.6%	86%	14.7%	-95.4%	-70.5%	62%	73%	73%	growth at 10 µM (SF-295): 80%; growth at 10 µM (KM12): 38.4%; growth at 10 µM (HT-29): -68.5%; growth at 10 µM [7]: 39.8%; growth at 10 µM (HCC 2998): -82.1%; growth at 10 µM [8]: -37.2%; growth at 10 µM (NCI-H322M): 98%; growth at 10 µM (NCI-H460): 24.6%; growth at 10 µM (NCI-H23): 79%; growth at 10 µM (HOP-62): 80%; growth at 10 µM (A549): 54.1%; growth at 10 µM [9]: 81%; growth at 10 µM (RPMI-8226): 23.7%; growth at 10 µM (K562): 0.57%; growth at 10 µM (CCRF-CEM): 26.7%; pIC50 (MDA-MB-231 [10]): 5.09
